Reference: PubChem BioAssay (NCI)
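GI50 is the concentration that inhibits growth by half. Definition used: TGI = concentration required for complete inhibition of growth.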

Key:
Experiment in all cases: NCI-60 cell line screen, 384-well format
786-0 renal = system: 786-0 renal
A498 renal = system: A498 renal
A549 NSCLC = system: A549 NSCLC
ACHN renal = system: ACHN renal
BT-549 breast = system: BT-549 breast
CAKI-1 renal = system: CAKI-1 renal
CCRF-CEM leukemia = system: CCRF-CEM leukemia
DU-145 prostate = system: DU-145 prostate
EKVX NSCLC = system: EKVX NSCLC
HCT-116 colon = system: HCT-116 colon
HCT-15 colon = system: HCT-15 colon
HL-60(TB) leukemia = system: HL-60(TB) leukemia
HOP-62 NSCLC = system: HOP-62 NSCLC
HOP-92 NSCLC = system: HOP-92 NSCLC
HS 578T breast = system: HS 578T breast
HT29 colon = system: HT29 colon
IGROV1 ovarian = system: IGROV1 ovarian
K-562 leukemia = system: K-562 leukemia
KM12 colon = system: KM12 colon
LOX IMVI melanoma = system: LOX IMVI melanoma
M14 melanoma = system: M14 melanoma
MALME-3M melanoma = system: MALME-3M melanoma
MCF7 breast = system: MCF7 breast
MDA-MB-231 breast = system: MDA-MB-231 breast
MDA-MB-435 melanoma = system: MDA-MB-435 melanoma
MDA-MB-468 breast = system: MDA-MB-468 breast
MOLT-4 leukemia = system: MOLT-4 leukemia
NCI-H226 lung = system: NCI-H226 lung
NCI-H23 lung = system: NCI-H23 lung
NCI-H322M lung = system: NCI-H322M lung
NCI-H522 lung = system: NCI-H522 lung
NCI/ADR-RES ovarian = system: NCI/ADR-RES ovarian
OVCAR-3 ovarian = system: OVCAR-3 ovarian
OVCAR-4 ovarian = system: OVCAR-4 ovarian
OVCAR-5 ovarian = system: OVCAR-5 ovarian
OVCAR-8 ovarian = system: OVCAR-8 ovarian
PC-3 prostate = system: PC-3 prostate
RPMI-8226 leukemia = system: RPMI-8226 leukemia
RXF 393 renal = system: RXF 393 renal
SF-268 CNS = system: SF-268 CNS
SF-295 CNS = system: SF-295 CNS
SF-539 CNS = system: SF-539 CNS
SK-MEL-2 melanoma = system: SK-MEL-2 melanoma
SK-MEL-28 melanoma = system: SK-MEL-28 melanoma
SK-OV-3 ovarian = system: SK-OV-3 ovarian
SN12C renal = system: SN12C renal
SNB-19 CNS = system: SNB-19 CNS
SNB-75 CNS = system: SNB-75 CNS
SW-620 colon = system: SW-620 colon
T-47D breast = system: T-47D breast
TK-10 renal = system: TK-10 renal
U251 glioblastoma = system: U251 glioblastoma
UACC-257 melanoma = system: UACC-257 melanoma
UACC-62 melanoma = system: UACC-62 melanoma
UO-31 renal = system: UO-31 renal

Work on CC(=O)O[C@]1(C(C)=O)CC[C@H]2[C@@H]3C=C(C)C4=CC(=O)CC[C@]4(C)[C@H]3CC[C@@]21C yielded a GI50 ([…]-0 renal) of over 100 µM, a TGI (786-0 renal) of over 100 µM and a GI50 (A498 renal) of over 100 µM. For the same compound, the TGI (A498 renal) was over 100 µM, the GI50 (A549 NSCLC) was over 100 µM and the TGI (A549 NSCLC) was over 100 µM. For the same compound, the GI50 (ACHN renal) was over 100 µM, the TGI (ACHN renal) was over 100 µM and the GI50 (BT-549 breast) was over 100 µM. It also gave a TGI (BT-549 breast) of over 100 µM, a GI50 (CAKI-1 renal) of over 100 µM and a TGI (CAKI-1 renal) of over 100 µM. It also gave a GI50 (CCRF-CEM leukemia) of 18.6 µM, a TGI (CCRF-CEM leukemia) of 32.9 µM and a GI50 (DU-145 prostate) of over 100 µM. For the same compound, the TGI (DU-145 prostate) was over 100 µM, the GI50 (EKVX NSCLC) was over 100 µM and the TGI (EKVX NSCLC) was over 100 µM. The GI50 (HCT-116 colon) was 70.7 µM, the TGI (HCT-116 colon) was over 100 µM and the GI50 (HCT-15 colon) was over 100 µM. For the same compound, the TGI (HCT-15 colon) was over 100 µM, the GI50 (HL-60(TB) leukemia) was 10.5 µM and the TGI (HL-60(TB) leukemia) was 22.5 µM. It also gave a GI50 (HOP-62 NSCLC) of over 100 µM, a TGI (HOP-62 NSCLC) of over 100 µM and a GI50 (HOP-92 NSCLC) of over 100 µM. The TGI (HOP-92 NSCLC) was over 100 µM, the GI50 (HS 578T breast) was over 100 µM and the TGI (HS 578T breast) was over 100 µM. The GI50 (HT29 colon) was over 100 µM, the TGI (HT29 colon) was over 100 µM and the GI50 (IGROV1 ovarian) was over 100 µM. It also gave a TGI (IGROV1 ovarian) of over 100 µM, a GI50 (K-562 leukemia) of 20.5 µM and a TGI (K-562 leukemia) of 41.7 µM. It also gave a GI50 (KM12 colon) of over 100 µM, a TGI (KM12 colon) of over 100 µM and a GI50 (LOX IMVI melanoma) of over 100 µM. It also gave a TGI (LOX IMVI melanoma) of over 100 µM, a GI50 (M14 melanoma) of 76.3 µM and a TGI (M14 melanoma) of over 100 µM. The GI50 (MALME-3M melanoma) was over 100 µM, the TGI (MALME-3M melanoma) was over 100 µM and the GI50 (MCF7 breast) was over 100 µM. It also gave a TGI (MCF7 breast) of over 100 µM, a GI50 (MDA-MB-231 breast) of over 100 µM and a TGI (MDA-MB-231 breast) of over 100 µM. For the same compound, the GI50 (MDA-MB-435 melanoma) was over 100 µM, the TGI (MDA-MB-435 melanoma) was over 100 µM and the GI50 (MDA-MB-468 breast) was 44.1 µM. It also gave a TGI (MDA-MB-468 breast) of over 100 µM, a GI50 (MOLT-4 leukemia) of 14.1 µM and a TGI (MOLT-4 leukemia) of 29.3 µM. It also gave a GI50 (NCI-H226 lung) of over 100 µM, a TGI (NCI-H226 lung) of over 100 µM and a GI50 (NCI-H23 lung) of over 100 µM. It also gave a TGI (NCI-H23 lung) of over 100 µM, a GI50 (NCI-H322M lung) of over 100 µM and a TGI (NCI-H322M lung) of over 100 µM. For the same compound, the GI50 (NCI-H522 lung) was over 100 µM, the TGI (NCI-H522 lung) was over 100 µM and the GI50 (NCI/ADR-RES ovarian) was over 100 µM. For the same compound, the TGI (NCI/ADR-RES ovarian) was over 100 µM, the GI50 (OVCAR-3 ovarian) was over 100 µM and the TGI (OVCAR-3 ovarian) was over 100 µM. The GI50 (OVCAR-4 ovarian) was over 100 µM, the TGI (OVCAR-4 ovarian) was over 100 µM and the GI50 (OVCAR-5 ovarian) was over 100 µM. For the same compound, the TGI (OVCAR-5 ovarian) was over 100 µM, the GI50 (OVCAR-8 ovarian) was over 100 µM and the TGI (OVCAR-8 ovarian) was over 100 µM. It also gave a GI50 (PC-3 prostate) of 74.7 µM, a TGI (PC-3 prostate) of over 100 µM and a GI50 (RPMI-8226 leukemia) of 11.5 µM. The TGI (RPMI-8226 leukemia) was 28.1 µM, the GI50 (RXF 393 renal) was over 100 µM and the TGI (RXF 393 renal) was over 100 µM. For the same compound, the GI50 (SF-268 CNS) was over 100 µM, the TGI (SF-268 CNS) was over 100 µM and the GI50 (SF-295 CNS) was over 100 µM. For the same compound, the TGI (SF-295 CNS) was over 100 µM, the GI50 (SF-539 CNS) was over 100 µM and the TGI (SF-539 CNS) was over 100 µM. For the same compound, the GI50 (SK-MEL-2 melanoma) was over 100 µM, the TGI (SK-MEL-2 melanoma) was over 100 µM and the GI50 (SK-MEL-28 melanoma) was over 100 µM. For the same compound, the TGI (SK-MEL-28 melanoma) was over 100 µM, the GI50 (SK-OV-3 ovarian) was over 100 µM and the TGI (SK-OV-3 ovarian) was over 100 µM. The GI50 (SN12C renal) was over 100 µM, the TGI (SN12C renal) was over 100 µM and the GI50 (SNB-19 CNS) was over 100 µM. For the same compound, the TGI (SNB-19 CNS) was over 100 µM, the GI50 (SNB-75 CNS) was over 100 µM and the TGI (SNB-75 CNS) was over 100 µM. It also gave a GI50 (SW-620 colon) of over 100 µM, a TGI (SW-620 colon) of over 100 µM and a GI50 (T-47D breast) of over 100 µM. For the same compound, the TGI (T-47D breast) was over 100 µM, the GI50 (TK-10 renal) was over 100 µM and the TGI (TK-10 renal) was over 100 µM. The GI50 (U251 glioblastoma) was over 100 µM, the TGI (U251 glioblastoma) was over 100 µM and the GI50 (UACC-257 melanoma) was over 100 µM. It also gave a TGI (UACC-257 melanoma) of over 100 µM, a GI50 (UACC-62 melanoma) of over 100 µM and a TGI (UACC-62 melanoma) of over 100 µM. It also gave a GI50 (UO-31 renal) of over 100 µM and a TGI (UO-31 renal) of over 100 µM.
